Reference: ChEMBL document CHEMBL1127884, “Inhibition of stromelysin-1 (MMP-3) by peptidyl phosphinic acids” (Bioorg Med Chem Lett, 1994)

How the values were obtained:
[1] = molecular target: T1, Interstitial collagenase (Homo sapiens) (UniProt P03956); experiment: In vitro inhibition of human fibroblast collagenase at a 10 uM.
T1 sequence (whole entry): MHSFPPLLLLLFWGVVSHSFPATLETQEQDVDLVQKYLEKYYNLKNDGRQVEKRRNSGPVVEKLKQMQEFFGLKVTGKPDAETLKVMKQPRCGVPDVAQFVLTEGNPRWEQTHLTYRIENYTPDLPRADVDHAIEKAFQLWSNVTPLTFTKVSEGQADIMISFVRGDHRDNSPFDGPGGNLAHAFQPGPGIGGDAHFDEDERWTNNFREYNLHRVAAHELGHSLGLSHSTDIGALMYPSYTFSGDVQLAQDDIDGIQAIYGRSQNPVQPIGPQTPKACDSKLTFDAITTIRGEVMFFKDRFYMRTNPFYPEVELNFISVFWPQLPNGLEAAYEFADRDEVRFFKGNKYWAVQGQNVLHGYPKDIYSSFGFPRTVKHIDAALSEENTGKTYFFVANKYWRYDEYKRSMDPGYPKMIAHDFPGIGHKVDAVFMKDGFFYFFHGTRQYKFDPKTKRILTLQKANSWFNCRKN

[2] = molecular target: T2, Stromelysin-1 (Homo sapiens, UniProt P08254); experiment: In vitro inhibition of human recombinant stromelysin-1.
Target sequence in this assay (P08254 whole entry): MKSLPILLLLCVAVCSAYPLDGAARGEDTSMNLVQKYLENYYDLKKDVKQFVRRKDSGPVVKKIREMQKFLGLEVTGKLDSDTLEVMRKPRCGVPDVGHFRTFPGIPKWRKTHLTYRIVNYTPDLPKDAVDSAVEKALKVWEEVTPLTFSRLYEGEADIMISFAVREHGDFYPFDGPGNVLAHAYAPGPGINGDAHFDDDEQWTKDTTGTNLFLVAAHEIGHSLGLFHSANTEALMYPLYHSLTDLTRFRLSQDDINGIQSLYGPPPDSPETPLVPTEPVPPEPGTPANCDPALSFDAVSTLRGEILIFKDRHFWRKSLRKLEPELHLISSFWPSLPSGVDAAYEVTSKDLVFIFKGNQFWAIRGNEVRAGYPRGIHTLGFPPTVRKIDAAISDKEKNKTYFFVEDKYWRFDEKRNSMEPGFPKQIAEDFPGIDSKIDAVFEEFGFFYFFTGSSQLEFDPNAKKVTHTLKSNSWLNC

[3] = molecular target: T3, Interstitial collagenase (Homo sapiens, UniProt P03956); experiment: In vitro inhibition of human fibroblast collagenase.
T3 sequence (P03956 whole entry): T1 sequence (whole entry)

[4] = molecular target: T2, Stromelysin-1; experiment: In vitro inhibition of human recombinant stromelysin-1 at a concentration of 5 uM.
Target sequence in this assay (P08254 100-477 limits assumed): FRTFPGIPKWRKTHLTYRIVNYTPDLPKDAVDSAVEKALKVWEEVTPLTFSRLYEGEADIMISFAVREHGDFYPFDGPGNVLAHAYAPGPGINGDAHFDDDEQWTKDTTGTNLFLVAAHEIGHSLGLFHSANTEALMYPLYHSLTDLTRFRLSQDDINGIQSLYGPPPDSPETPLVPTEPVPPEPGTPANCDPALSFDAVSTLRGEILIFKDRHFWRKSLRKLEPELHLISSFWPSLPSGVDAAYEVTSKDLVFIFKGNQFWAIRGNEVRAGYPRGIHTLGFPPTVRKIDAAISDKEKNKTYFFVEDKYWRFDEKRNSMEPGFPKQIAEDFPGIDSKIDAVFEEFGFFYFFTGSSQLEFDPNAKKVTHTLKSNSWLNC

Compound | inhibition [1] | Ki [2] | Ki [3] | inhibition [4]
CC(C)C[C@H](NC(=O)C(CCc1ccccc1)CP(=O)(O)CNC(=O)[C@H](Cc1ccccc1)NC(=O)OCc1ccccc1)C(=O)Nc1ccccc1 (stereo partly specified) | 4% | 710 nM |  | 
CC(C)C[C@H](NC(=O)C(CCc1ccccc1)CP(=O)(O)CNC(=O)OCc1ccccc1)C(=O)Nc1ccccc1 (stereo partly specified) |  | 280 nM | 15900 nM | 
CC(C)C[C@H](NC(=O)C(CCc1ccccc1)CP(=O)(O)[C@H](C)NC(=O)CN1C(=O)c2ccccc2C1=O)C(=O)Nc1ccccc1 (stereo partly specified) | 0% | 2400 nM |  | 
CC(=O)N1CCCC1C(=O)N[C@@H](C)C(=O)N[C@@H](C)P(=O)(O)CC(CCc1ccccc1)C(=O)N[C@@H](CC(C)C)C(=O)Nc1ccccc1 (stereo partly specified) |  | 6.1 nM | 2900 nM | 
CC(C)C[C@H](NC(=O)C(CCc1ccccc1)CP(=O)(O)CNC(=O)[C@H](Cc1ccc(O)cc1)NC(=O)OCc1ccccc1)C(=O)Nc1ccccc1 (stereo partly specified) | 0% | 560 nM |  | 
CC(C)C[C@H](NC(=O)C(CCc1ccccc1)CP(=O)(O)CNC(=O)[C@H](C)NC(=O)OCc1ccccc1)C(=O)Nc1ccccc1 (stereo partly specified) | 0% | 280 nM |  | 
CC(=O)N1CCCC1C(=O)N[C@@H](C)P(=O)(O)CC(CCc1ccccc1)C(=O)N[C@@H](CC(C)C)C(=O)Nc1ccccc1 (stereo partly specified) | 0% |  |  | 57%
CC(=O)N[C@@H](C)C(=O)N[C@@H](C)P(=O)(O)CC(CCc1ccccc1)C(=O)N[C@@H](CC(C)C)C(=O)Nc1ccccc1 (stereo partly specified) | 0% | 340 nM |  | 
CCCC[C@H](NC(=O)OCc1ccccc1)C(=O)NCP(=O)(O)CC(CCc1ccccc1)C(=O)N[C@@H](CC(C)C)C(=O)Nc1ccccc1 (stereo partly specified) | 0% | 1300 nM |  | 
CC(C)C[C@H](NC(=O)C(CCc1ccccc1)CP(=O)(O)[C@H](C)NC(=O)OCc1ccccc1)C(=O)Nc1ccccc1 (stereo partly specified) |  | 330 nM | 7500 nM | 

Second part, the compound after the results:

inhibition [1] | Ki [2] | Ki [3] | inhibition [4] | Compound
9% | 210 nM |  |  | CC(C)C[C@H](NC(=O)C(CCc1ccccc1)CP(=O)(O)CNC(=O)[C@H](Cc1c[nH]cn1)NC(=O)OCc1ccccc1)C(=O)Nc1ccccc1 (stereo partly specified)
0% | 940 nM |  |  | CC(C)C[C@H](NC(=O)C(CCc1ccccc1)CP(=O)(O)CNC(=O)Cc1ccccc1)C(=O)Nc1ccccc1 (stereo partly specified)
14% | 600 nM |  |  | CC(C)C[C@H](NC(=O)C(CCc1ccccc1)CP(=O)(O)CNC(=O)[C@H](CC(N)=O)NC(=O)OCc1ccccc1)C(=O)Nc1ccccc1 (stereo partly specified)
 | 20 nM | 5100 nM |  | CC(C)C[C@H](NC(=O)C(CCc1ccccc1)CP(=O)(O)[C@H](C)NC(=O)[C@H](C)NC(=O)C1CCCN1C(=O)c1ccccc1)C(=O)Nc1ccccc1 (stereo partly specified)
39% | 24 nM |  |  | CC(C)C[C@H](NC(=O)C(CCc1ccccc1)CP(=O)(O)CNC(=O)[C@H](C)NC(=O)C1CCCN1C(=O)c1ccccc1)C(=O)Nc1ccccc1 (stereo partly specified)
0% | 1900 nM |  |  | CC(C)C[C@H](NC(=O)C(CCc1ccccc1)CP(=O)(O)CNCc1ccccc1)C(=O)Nc1ccccc1 (stereo partly specified)
14% | 410 nM |  |  | CC(C)CC(NC(=O)C(CCc1ccccc1)CP(=O)(O)CNC(=O)CN1C(=O)c2ccccc2C1=O)C(=O)Nc1ccccc1 (stereo unspecified)
12% | 370 nM |  |  | CC(C)C[C@H](NC(=O)C(CCc1ccccc1)CP(=O)(O)CNC(=O)[C@H](CCC(=O)O)NC(=O)OCc1ccccc1)C(=O)Nc1ccccc1 (stereo partly specified)
18% | 4600 nM |  |  | CC(C)C[C@H](NC(=O)C(CCc1ccccc1)CP(=O)(O)CNC(=O)[C@H](CCCCN)NC(=O)OCc1ccccc1)C(=O)Nc1ccccc1 (stereo partly specified)
7% | 1900 nM |  |  | CC(C)C[C@H](NC(=O)C(CCc1ccccc1)CP(=O)(O)[C@H](C)NCc1ccccc1)C(=O)Nc1ccccc1 (stereo partly specified)
60% | 15 nM |  |  | CC(=O)N1CCCC1C(=O)N[C@@H](C)C(=O)NCP(=O)(O)CC(CCc1ccccc1)C(=O)N[C@@H](CC(C)C)C(=O)Nc1ccccc1 (stereo partly specified)
32% | 42 nM |  |  | CC(=O)N[C@@H](C)C(=O)N[C@@H](C)C(=O)N[C@@H](C)P(=O)(O)CC(CCc1ccccc1)C(=O)N[C@@H](CC(C)C)C(=O)Nc1ccccc1 (stereo partly specified)
4% | 1400 nM |  |  | CC(C)C[C@H](NC(=O)C(CCc1ccccc1)CP(=O)(O)CNC(=O)CNC(=O)OCc1ccccc1)C(=O)Nc1ccccc1 (stereo partly specified)
